# Experiments:
# [1] = tested on: Peptide-specific T cell lines; assay: T cell proliferation assay, peptide-specific T cell lines from peptide-immunised rats; assay type: cell-based, Lewis rats; conditions: for CPM T Cell Line: in vitro peptide 10 µg/ml
# Experimental: (§1) T cell proliferation assays: PLNC were cultured in triplicate in 200 µl flat bottom microtitre wells (Costar) at 2 x 10^5 cells per well with or without antigen. In initial experiments PLNC were tested for responsiveness to individual peptides at concentrations of 5 and 20 µg/ml, and Mt, hsp65 and PPD over a range of concentrations. Concanavalin A (2 µg/ml) was used as a positive control for T cell proliferation. Cultures were incubated for 96 h at 37°C in a humidified atmosphere of 5% CO2. Cultures were pulsed for the final 16 h with [^3H] TdR (Amersham, U.K., 1 uCi/well) and TdR uptake measured using a liquid scintillation β counter. Assays using T cell lines were performed as above using 2 x 10^4 line cells per well with irradiated (30 Gy) syngeneic accessory cells (either 3 x 10^5 splenocytes/well or 10^6 thymocytes/well). Results are expressed as mean counts per minute (cpm) of triplicate cultures. In experiments where responses to Ag were low, responses were considered significant if the stimulation index (S.I. = […]) was greater than two and Student's t tests gave p < 0.01.
# T cell lines: T cell lines with specificity for mycobacterial hsp65 or peptides were generated by bulk stimulation of either hsp65-PLNC or Mt-PLNC. PLNC were cultured at 5 x 10^6/ml in culture medium supplemented with 2% normal rat serum (NRS) in the presence of 10 µg/ml Ag. After three days viable cells were harvested using a ficoll-isopaque gradient and cultured for a further four days in culture medium + 5% FCS and 5% TCGF (Con A-activated rat spleen supernatant). Seven days after initial stimulation lines were restimulated with irradiated spleen accessory cells and 10 µg/ml Ag in culture medium + NRS. Lines were maintained ir. this seven day restimulation cycle. Short term epitope-specific T cell lines were also generated from rats immunised with synthetic peptides. Peptide-PLNC were cultured as above in the presence of 10 µg/ml peptide.
# Bulk stimulation generated T cell lines to eight of the nine peptides tested. These eight lines were tested for specificity after four in vitro restimulations (Table II). All responded to the immunising peptide and, to some extent, to hsp65.
# (§2) T cell responses by immunisation with hsp65 peptides. Rats were immunised with synthetic peptides containing individual hsp65 epitopes (100 µg peptide/DDA per rat). Ten days later PLNC were isolated and tested for responses to overlapping peptides (20 µg/ml). Peptide-specific T cell lines were generated by bulk in vitro stimulation of PLNC with immunising peptide. Lines were tested for responses to overlapping peptides (10 µg/ml). […] Results are expressed as mean cpm of triplicate cultures. All SEM were less than 20%.
# [2] = tested on: primed lymph node cells (PLNC); assay: T cell proliferation assay, PLNC from peptide-immunised rats; assay type: cell-based, Lewis rats; conditions: for CPM PLNC: in vitro peptide 20 µg/ml
# Experimental: Immunisations with synthetic peptides and primed lymph node populations: Rats were immunised with 50 µg of synthetic peptide in PBS/DDA in each hind footpad (i.e. 50 µg/footpad, 100 µg/rat). Ten days later, draining popliteal lymph nodes were removed, disaggregated, washed three times and used as a source of primed lymph node cells (PLNC). In some experiments, PLNC were derived as pooled inguinal and popliteal lymph nodes from AA rats 35-42 days post Mt immunisation.
# as §1
# To determine whether immunisation of rats with synthetic peptides was effective at priming for T cell reactivity to hsp65 epitopes, in vitro proliferative responses following immunisation with 100 µg of peptide each containing individual T cell epitopes were examined. PLNC isolated ten days after immunisation were tested for response to the immunising peptide, overlapping peptides and to hsp65 (Table II). PLNC responses were observed after immunisation with seven of the nine peptides. Responses were not seen after immunisation with peptides 386-400 and 511-525.
# as §2
# [3] = target: RT1.B^1 MHC class II molecule (rat (Lewis)); assay: cell-based or functional assay
# hsp65-PLNC = assay: T cell proliferation assay, hsp65-PLNC; assay type: cell-based, Lewis rats; conditions: PLNC from hsp65-immunised rats; peptides 5 and 20 µg/ml
# Experimental: Immunisations and primed lymph node populations: Rats were immunised with either Mt or hsp65. Mt was suspended at 5 mg/ml in IFA or DDA and 100 µl injected in each hind footpad (i.e. 500 µg/footpad, 1 mg/rat). Hsp65 (1 mg/ml in PBS) was mixed 1:1 with DDA and 100 µl injected (i.e. 50 µg/footpad, 100 µg/rat). Ten to 21 days later, draining popliteal lymph nodes were removed, disaggregated, washed three times and used as a source of primed lymph node cells (PLNC). In control experiments splenocytes and lymph nodes from unimmunised rats and PLNC from rats immunised with IFA or DDA/PBS alone were used.
# as §1
# Hsp65-PLNC were analysed for responsiveness to a panel of peptides covering the entire sequence of hsp65 (Fig. 3a). […] In terms of magnitude of response, three regions of the molecule (residues 176-190, 211-230 and 221-240) appeared to contain the "dominant" T cell epitopes, while regions 86-100. 251-270, 396-410 and 506-525 contained "subdominant" or minor epitopes.
# [4] = tested on: hsp65-specific T cell line; assay: T cell proliferation assay, hsp65-specific T cell line; assay type: cell-based, Lewis rats; conditions: short term lines from ten day hsp65-PLNC, seven days after first restimulation
# Experimental: as §1
# T cell lines: T cell lines with specificity for mycobacterial hsp65 or peptides were generated by bulk stimulation of either hsp65-PLNC or Mt-PLNC. PLNC were cultured at 5 x 10^6/ml in culture medium supplemented with 2% normal rat serum (NRS) in the presence of 10 µg/ml Ag. […]
# [5] = T cell line from 86-100-immunised PLNC
# [6] = PLNC 10 days after immunisation with peptide 86-100 (100 µg/DDA), mean of triplicates
# [7] = T cell line from 176-190-immunised PLNC
# [8] = PLNC 10 days after immunisation with peptide 176-190 (100 µg/DDA)
# [9] = T cell line from 211-225-immunised PLNC
# [10] = PLNC 10 days after immunisation with peptide 211-225 (100 µg/DDA)
# [11] = T cell line from 226-240-immunised PLNC
# [12] = PLNC 10 days after immunisation with peptide 226-240 (100 µg/DDA)
# [13] = T cell line from 256-270-immunised PLNC
# [14] = PLNC 10 days after immunisation with peptide 256-270 (100 µg/DDA)
# [15] = T cell line from 396-410-immunised PLNC
# [16] = PLNC 10 days after immunisation with peptide 396-410 (100 µg/DDA)
# [17] = T cell line from 446-460-immunised PLNC
# [18] = PLNC 10 days after immunisation with peptide 446-460 (100 µg/DDA)
# [19] = T cell line from 511-525-immunised PLNC
# [20] = PLNC 10 days after immunisation with peptide 511-525 (100 µg/DDA)
substance,measurement,setting,value
"81-95: synthetic 15mer, residues 81-95 of mycobacterial hsp65 (DDVAGDGTTTATVLA; UniProt P9WPE7 81-95, looked up, fragment)",response of T cell line generated following immunisation with the 86-100 peptide,[1],responded
same,CPM T Cell Line,[1]; [5],15785 cpm
same,CPM PLNC,[2]; [6],15296 cpm
"91-105: synthetic 15mer, residues 91-105 of mycobacterial hsp65",response of T cell line generated following immunisation with the 86-100 peptide,[1],responded
same,CPM T Cell Line,[1]; [5],18444 cpm
same,CPM PLNC,[2]; [6],1999 cpm
"171-185: synthetic 15mer, residues 171-185 of mycobacterial hsp65",CPM T Cell Line,[1]; [7],1640 cpm
same,CPM PLNC,[2]; [8],3082 cpm
"181-195: synthetic 15mer, residues 181-195 of mycobacterial hsp65",CPM T Cell Line,[1]; [7],1653 cpm
same,CPM PLNC,[2]; [8],1916 cpm
"206-220: synthetic 15mer, residues 206-220 of mycobacterial hsp65",CPM T Cell Line,[1]; [9],988 cpm
same,CPM PLNC,[2]; [10],645 cpm
"216-230: synthetic 15mer, residues 216-230 of mycobacterial hsp65",CPM T Cell Line,[1]; [9],102341 cpm
same,CPM PLNC,[2]; [10],11117 cpm
"221-235: synthetic 15mer, residues 221-235 of mycobacterial hsp65",CPM T Cell Line,[1]; [11],100306 cpm
same,CPM PLNC,[2]; [12],7381 cpm
"231-245: synthetic 15mer, residues 231-245 of mycobacterial hsp65",CPM T Cell Line,[1]; [11],862 cpm
same,CPM PLNC,[2]; [12],1655 cpm
"251-265: synthetic 15mer, residues 251-265 of mycobacterial hsp65",CPM T Cell Line,[1]; [13],66063 cpm
same,response of the line generated against M.256-270 (line P.m52),[1]; irradiated syngeneic spleen APC,responded
same,CPM PLNC,[2]; [14],6391 cpm
"261-275: synthetic 15mer, residues 261-275 of mycobacterial hsp65",CPM T Cell Line,[1]; [13],646 cpm
same,CPM PLNC,[2]; [14],2553 cpm
"391-405: synthetic 15mer, residues 391-405 of mycobacterial hsp65",CPM T Cell Line,[1]; [15],39335 cpm
same,CPM PLNC,[2]; [16],2280 cpm
"401-415: synthetic 15mer, residues 401-415 of mycobacterial hsp65 (AKAAVEEGIVAGGGV; UniProt P9WPE7 401-415, looked up, fragment)",CPM T Cell Line,[1]; [15],2011 cpm
same,CPM PLNC,[2]; [16],3211 cpm
"441-455: synthetic 15mer, residues 441-455 of mycobacterial hsp65",CPM T Cell Line,[1]; [17],17805 cpm
same,CPM PLNC,[2]; [18],4715 cpm
"451-465: synthetic 15mer, residues 451-465 of mycobacterial hsp65",CPM T Cell Line,[1]; [17],1283 cpm
same,CPM PLNC,[2]; [18],2130 cpm
"506-520: synthetic 15mer, residues 506-520 of mycobacterial hsp65",CPM T Cell Line,[1]; [19],61293 cpm
same,CPM PLNC,[2]; [20],2754 cpm
"516-530: synthetic 15mer, residues 516-530 of mycobacterial hsp65",CPM T Cell Line,[1]; [19],1231 cpm
same,CPM PLNC,[2]; [20],2821 cpm
mycobacterial hsp65 peptide 86-100,reduction of peptide (1 µg/ml) induced T cell line proliferation by anti-RT1.B mAb 0X6 (10 µg/ml),[3],> 70%
mycobacterial hsp65 peptide 176-190,reduction of peptide (1 µg/ml) induced T cell line proliferation by anti-RT1.B mAb 0X6 (10 µg/ml),[3],> 70%
mycobacterial hsp65 peptide 211-225,reduction of peptide (1 µg/ml) induced T cell line proliferation by anti-RT1.B mAb 0X6 (10 µg/ml),[3],> 70%
mycobacterial hsp65 peptide 226-240,reduction of peptide (1 µg/ml) induced T cell line proliferation by anti-RT1.B mAb 0X6 (10 µg/ml),[3],> 70%
mycobacterial hsp65 peptide 256-270,reduction of peptide (1 µg/ml) induced T cell line proliferation by anti-RT1.B mAb 0X6 (10 µg/ml),[3],> 70%
mycobacterial hsp65 peptide 396-410,reduction of peptide (1 µg/ml) induced T cell line proliferation by anti-RT1.B mAb 0X6 (10 µg/ml),[3],> 70%
mycobacterial hsp65 peptide 446-460,reduction of peptide (1 µg/ml) induced T cell line proliferation by anti-RT1.B mAb 0X6 (10 µg/ml),[3],> 70%
mycobacterial hsp65 peptide 511-525,reduction of peptide (1 µg/ml) induced T cell line proliferation by anti-RT1.B mAb 0X6 (10 µg/ml),[3],> 70%
"peptide 180-188: synthetic 9mer, minimal AA-associated epitope 180-188 of mycobacterial hsp65 (TFGLQLELT; UniProt P9WPE7 180-188, looked up, fragment) [reference compound]",hsp65-PLNC proliferative response to peptide,hsp65-PLNC,"induce responses, but at a lower level"
same,CPM T Cell Line,[1]; [7],23275 cpm
same,CPM PLNC,[2]; [8],7859 cpm
"peptide 386-400: synthetic 15mer, residues 386-400 of mycobacterial hsp65",hsp65-specific T cell line response to peptide,[4],did stimulate
same,hsp65-PLNC proliferative response to peptide,hsp65-PLNC,failed to stimulate
same,PLNC responses after immunisation with the peptide,"[2]; 100 µg peptide, PLNC isolated ten days after immunisation",not seen
